Where “and” joins values, the source holds several entries; their conditions need not be identical. Equal values may be shown once.
Test system: K86415-001-R-J1-PDC complex spheroids, viability
Test: Anticancer human tumor K86415-001-R-J1-PDC patient-derived lung adenocarcinoma cell line growth inhibition [RAS]
Details: for viability, T/C: stronger effect = lower value
Procedure, shortened: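 Tumour cells grown as complex spheroids with HUVEC endothelial cells and mesenchymal stem cells, treated with RAS pathway inhibitor combinations. Each agent spans half-log steps from near clinical Cmax, or 10 microM where Cmax is unknown.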
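Also: spheroids exposed to agents for seven days before readout.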

Structure (SMILES): CCN1CCN(Cc2ccc(Nc3ncc(F)c(-c4cc(F)c5nc(C)n(C(C)C)c5c4)n3)nc2)CC1 + C=CC(=O)N1CCN(c2nc(OCC3CCCN3C)nc3c(F)c(-c4nc(N)cc(C)c4C(F)(F)F)c(Cl)cc23)C(C)C1
- IC50 (curve of first compound, second compound 0.00316 µM): < 3.16 nM
- IC50 (curve of first compound, second compound 0.01 µM): < 3.16 nM
- IC50 (curve of first compound, second compound 0.0316 µM): < 3.16 nM
- IC50 (curve of first compound, second compound 0.1 µM): < 3.16 nM
- IC50 (curve of first compound, second compound 0.316 µM): < 3.16 nM
- IC50 (curve of first compound, second compound 1 µM): < 3.16 nM
- viability, T/C (second compound 0.00316 µM, first compound 0.00316 µM): 17.1%
- viability, T/C (second compound 0.00316 µM, first compound 0.01 µM): 15.9%
- viability, T/C (second compound 0.00316 µM, first compound 0.0316 µM): 13.3%
- viability, T/C (second compound 0.00316 µM, first compound 0.1 µM): 15%
- viability, T/C (second compound 0.00316 µM, first compound 0.316 µM): 18.7%
- viability, T/C (second compound 0.00316 µM, first compound 1 µM): 33.9%
- viability, T/C (second compound 0.01 µM, first compound 0.00316 µM): 10.3%
- viability, T/C (second compound 0.01 µM, first compound 0.01 µM): 11.2%
- viability, T/C (second compound 0.01 µM, first compound 0.0316 µM): 12.3%
- viability, T/C (second compound 0.01 µM, first compound 0.1 µM): 10.7%
- viability, T/C (second compound 0.01 µM, first compound 0.316 µM): 13.3%
- viability, T/C (second compound 0.01 µM, first compound 1 µM): 24.8%
- viability, T/C (second compound 0.0316 µM, first compound 0.00316 µM): 9.79%
- viability, T/C (second compound 0.0316 µM, first compound 0.01 µM): 12.9%
- viability, T/C (second compound 0.0316 µM, first compound 0.0316 µM): 11%
- viability, T/C (second compound 0.0316 µM, first compound 0.1 µM): 10.2%
- viability, T/C (second compound 0.0316 µM, first compound 0.316 µM): 11%
- viability, T/C (second compound 0.0316 µM, first compound 1 µM): 18.5%
- viability, T/C (second compound 0.1 µM, first compound 0.00316 µM): 10.1%
- viability, T/C (second compound 0.1 µM, first compound 0.01 µM): 10.5%
- viability, T/C (second compound 0.1 µM, first compound 0.0316 µM): 9.47%
- viability, T/C (second compound 0.1 µM, first compound 0.1 µM): 8.04%
- viability, T/C (second compound 0.1 µM, first compound 0.316 µM): 10.6%
- viability, T/C (second compound 0.1 µM, first compound 1 µM): 14.2%
- viability, T/C (second compound 0.316 µM, first compound 0.00316 µM): 9.47%
- viability, T/C (second compound 0.316 µM, first compound 0.01 µM): 8.55%
- viability, T/C (second compound 0.316 µM, first compound 0.0316 µM): 9.15%
- viability, T/C (second compound 0.316 µM, first compound 0.1 µM): 9.51%
- viability, T/C (second compound 0.316 µM, first compound 0.316 µM): 12.2%
- viability, T/C (second compound 0.316 µM, first compound 1 µM): 17.6%
- viability, T/C (second compound 1 µM, first compound 0.00316 µM): 9.7%
- viability, T/C (second compound 1 µM, first compound 0.01 µM): 11.8%
- viability, T/C (second compound 1 µM, first compound 0.0316 µM): 11.7%
- viability, T/C (second compound 1 µM, first compound 0.1 µM): 10.2%
- viability, T/C (second compound 1 µM, first compound 0.316 µM): 11.2%
- viability, T/C (second compound 1 µM, first compound 1 µM): 18.3%

Structure (SMILES): O=C(c1ccc(F)c(F)c1Nc1ccc(I)cc1F)N1CC(O)([C@@H]2CCCCN2)C1
- viability, T/C (compound 0.00316 µM): 103% [middle of 4 runs]
- viability, T/C (compound 0.01 µM): 90% [middle of 4 runs]
- viability, T/C (compound 0.0316 µM): 59% [middle of 4 runs]
- viability, T/C (compound 0.1 µM): 46% [middle of 4 runs]
- viability, T/C (compound 0.316 µM): 22.4% [middle of 4 runs]
- viability, T/C (compound 1 µM): 8.88% [middle of 4 runs]
- IC50 (curve of compound): 68 nM [middle of 4 runs]

Structure (SMILES): C=CC(=O)Nc1cc(Nc2nccc(-c3cn(C)c4ccccc34)n2)c(OC)cc1N(C)CCN(C)C
- viability, T/C (compound 0.00316 µM): 105% [middle of 4 runs]
- viability, T/C (compound 0.01 µM): 98.8% [middle of 4 runs]
- viability, T/C (compound 0.0316 µM): 101% [middle of 4 runs]
- viability, T/C (compound 0.1 µM): 85.1% (2×) and 93.4% and 76.6%
- viability, T/C (compound 0.316 µM): 67.2% [middle of 4 runs]
- viability, T/C (compound 1 µM): 40.9% [middle of 4 runs]
- IC50 (curve of compound): 659 nM [middle of 4 runs]

Structure (SMILES): CC(Nc1ccc2c(c1)OCCn1cc(N3C(=O)OCC3C(F)F)nc1-2)C(N)=O (stereo not drawn) + CCn1c(-c2cccnc2C(C)OC)c2c3cc(ccc31)N1CCOC(CC(NC(=O)C(C(C)C)N(C)C(=O)C3(F)CCN(C(=O)C#CC(C)(C)N(C)C)CC3)C(=O)N3CCCC(N3)C(=O)OCC(C)(C)C2)C1
- IC50 (curve of first compound, second compound 0.000949 µM): < 31.6 nM
- IC50 (curve of first compound, second compound 0.003 µM): < 31.6 nM
- IC50 (curve of first compound, second compound 0.00949 µM): < 31.6 nM
- IC50 (curve of first compound, second compound 0.03 µM): < 31.6 nM
- IC50 (curve of first compound, second compound 0.0949 µM): < 31.6 nM
- IC50 (curve of first compound, second compound 0.3 µM): < 31.6 nM
- viability, T/C (second compound 0.000949 µM, first compound 0.0316 µM): 26.6%
- viability, T/C (second compound 0.000949 µM, first compound 0.1 µM): 24.9%
- viability, T/C (second compound 0.000949 µM, first compound 0.316 µM): 14.1%
- viability, T/C (second compound 0.000949 µM, first compound 1 µM): 24.3%
- viability, T/C (second compound 0.000949 µM, first compound 3.16 µM): 8.98%
- viability, T/C (second compound 0.000949 µM, first compound 10 µM): 1.64%
- viability, T/C (second compound 0.003 µM, first compound 0.0316 µM): 11.9%
- viability, T/C (second compound 0.003 µM, first compound 0.1 µM): 8%
- viability, T/C (second compound 0.003 µM, first compound 0.316 µM): 6.61%
- viability, T/C (second compound 0.003 µM, first compound 1 µM): 4.14%
- viability, T/C (second compound 0.003 µM, first compound 3.16 µM): 2.69%
- viability, T/C (second compound 0.003 µM, first compound 10 µM): 0.95%
- viability, T/C (second compound 0.00949 µM, first compound 0.0316 µM): 9.31%
- viability, T/C (second compound 0.00949 µM, first compound 0.1 µM): 8.26%
- viability, T/C (second compound 0.00949 µM, first compound 0.316 µM): 6.9%
- viability, T/C (second compound 0.00949 µM, first compound 1 µM): 3.65%
- viability, T/C (second compound 0.00949 µM, first compound 3.16 µM): 1.68%
- viability, T/C (second compound 0.00949 µM, first compound 10 µM): 1.1%
- viability, T/C (second compound 0.03 µM, first compound 0.0316 µM): 8.58%
- viability, T/C (second compound 0.03 µM, first compound 0.1 µM): 7.61%
- viability, T/C (second compound 0.03 µM, first compound 0.316 µM): 6.15%
- viability, T/C (second compound 0.03 µM, first compound 1 µM): 2.63%
- viability, T/C (second compound 0.03 µM, first compound 3.16 µM): 1.91%
- viability, T/C (second compound 0.03 µM, first compound 10 µM): 1.86%
- viability, T/C (second compound 0.0949 µM, first compound 0.0316 µM): 10.4%
- viability, T/C (second compound 0.0949 µM, first compound 0.1 µM): 8.62%
- viability, T/C (second compound 0.0949 µM, first compound 0.316 µM): 4.05%
- viability, T/C (second compound 0.0949 µM, first compound 1 µM): 3.24%
- viability, T/C (second compound 0.0949 µM, first compound 3.16 µM): 1.57%
- viability, T/C (second compound 0.0949 µM, first compound 10 µM): 1.22%
- viability, T/C (second compound 0.3 µM, first compound 0.0316 µM): 8.96%
- viability, T/C (second compound 0.3 µM, first compound 0.1 µM): 6.86%
- viability, T/C (second compound 0.3 µM, first compound 0.316 µM): 3.94%
- viability, T/C (second compound 0.3 µM, first compound 1 µM): 2.09%
- viability, T/C (second compound 0.3 µM, first compound 3.16 µM): 1.58%
- viability, T/C (second compound 0.3 µM, first compound 10 µM): 1.59%

Reference: PubChem BioAssay AID2060893 (Molecular Pharmacology Branch, DTP, NCI, 2025)
